A word on the melting point: it is the temperature, or range, at which the solid turns liquid.

Each structure is given as a SMILES string.

In turn, `CCOC(=O)/C=C/c1cnc(NC(C)=O)s1` [Example 1, Ethyl 3-((E)-2-acetamido-thiazol-5-yl)-acrylate] showed a melting point of 239 to 240 °C.
With `CC(=O)Nc1ncc(/C=C/c2ncc(C(C)(C)C)o2)s1` [Example 2, N-[(E)-5-(2-(5-t-butyl-oxazol-2-yl)-vinyl)-thiazol-2-yl]-acetamide], the melting point stood at 275 °C.

(Values after US6407124B1, “Carbon substituted aminothiazole inhibitors of cyclin dependent kinases” (Bristol-Myers Squibb Company, priority 1998, dated 2002).)
